Laboratory results as given in patent US6855512B2, “Methods for identifying inhibitors of cytochrome P450RAI” (Allergan, Inc., priority 2000, dated 2005).

How the values were obtained:
P450RAI-1 = molecular target: T1, P450RAI-1 (Homo sapiens, UniProt O43174); test: P450RAI-1 cell-based inhibitor assay (intact HeLa); details: read-out: P450RAI INHIBITION DATA INTACT HELA IC50
T1 construct: expressed in transfected cells; host or cells: HeLa (stably transfected, hygromycin selection)
T1 sequence (O43174 1-497): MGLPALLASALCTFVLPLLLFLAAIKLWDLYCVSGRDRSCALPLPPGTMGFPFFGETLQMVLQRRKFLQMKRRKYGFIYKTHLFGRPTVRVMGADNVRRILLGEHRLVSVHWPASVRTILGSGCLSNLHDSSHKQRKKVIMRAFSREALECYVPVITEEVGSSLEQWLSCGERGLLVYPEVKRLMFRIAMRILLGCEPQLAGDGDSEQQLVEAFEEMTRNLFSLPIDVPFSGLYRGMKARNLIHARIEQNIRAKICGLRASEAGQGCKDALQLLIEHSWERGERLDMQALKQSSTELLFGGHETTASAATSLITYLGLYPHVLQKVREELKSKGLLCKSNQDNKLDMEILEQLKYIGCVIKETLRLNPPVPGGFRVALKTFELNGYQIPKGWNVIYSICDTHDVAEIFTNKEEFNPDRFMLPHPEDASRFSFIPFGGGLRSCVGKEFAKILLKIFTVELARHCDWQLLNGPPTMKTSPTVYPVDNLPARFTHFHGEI
Description: P450RAI-1 Cell-Based Inhibitor Assay:
P450RAI-1 stably transfected HeLa cells are maintained in […] tissue culture dishes in Modified Eagle's Medium (MEM) containing 10% Fetal Bovine Serum (FBS) and 100 μg/ml hygromycin. Exponentially growing cells are harvested by incubating in trypsin. Cells are then washed with 1× Phosphate Buffered Saline (PBS) and plated in a 48-well plate at 5×10^5 cells in 0.2 ml MEM medium containing 10% FBS and 0.05 μCi [^3H]-RA in the presence or absence of increasing concentrations of the test compounds. The compounds are diluted in 100% DMSO and then added in triplicate wells at either 10, 1 or 0.1 μM final concentration. As a positive control for RA metabolism inhibition, cells are also incubated with ketoconazole at 100, 10 and 1 μM. Cell are incubated for 3 hours at 37° C. […] The water soluble radioactivity is quantified using β-scintillation counter. IC50 values represent the concentration of inhibitor required to inhibit all-trans-RA metabolism by 50 percent and are derived manually from log-transformed data.

RARα [1] = molecular target: T2, RARα (Homo sapiens, UniProt P10276); test: chimeric receptor transactivation assay, RARα; format: cell-based; details: EC50 line of EC50/(EFFICACY)/Kd, read-out: RAR α EC50
T2 sequence (P10276 183-417 limits assumed): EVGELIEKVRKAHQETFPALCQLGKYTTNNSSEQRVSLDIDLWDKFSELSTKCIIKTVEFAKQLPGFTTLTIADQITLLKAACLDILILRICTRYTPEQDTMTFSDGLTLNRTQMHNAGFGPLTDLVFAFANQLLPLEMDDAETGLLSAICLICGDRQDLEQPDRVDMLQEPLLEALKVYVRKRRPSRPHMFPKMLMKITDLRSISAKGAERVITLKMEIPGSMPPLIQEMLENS
From the text: (§1) Assays described below measure the ability of a compound to bind to, and/or activate various retinoid receptor subtypes. When in these assays a compound binds to a given receptor subtype and activates the transcription of a reporter gene through that subtype, then the compound is considered an agonist of that receptor subtype. […] In the below described assays the ability of the compounds to bind to RARα, RARβ, RARγ, RXRα, RXRβ and RXRγ receptors, and the ability or inability of the compounds to activate transcription of a reporter gene through these receptor subtypes can be tested.
(§2) The results obtained in this assay are expressed in EC50 numbers, as they are also in the chimeric receptor transactivation assay. The results of ligand binding assay are expressed in Kd numbers.

RARγ [2] = molecular target: T3, RARγ (Homo sapiens, UniProt P13631); test: chimeric receptor transactivation assay, RARγ; format: cell-based; details: EC50 line of EC50/(EFFICACY)/Kd, read-out: RAR γ EC50
T3 sequence (P13631 185-454 limits assumed): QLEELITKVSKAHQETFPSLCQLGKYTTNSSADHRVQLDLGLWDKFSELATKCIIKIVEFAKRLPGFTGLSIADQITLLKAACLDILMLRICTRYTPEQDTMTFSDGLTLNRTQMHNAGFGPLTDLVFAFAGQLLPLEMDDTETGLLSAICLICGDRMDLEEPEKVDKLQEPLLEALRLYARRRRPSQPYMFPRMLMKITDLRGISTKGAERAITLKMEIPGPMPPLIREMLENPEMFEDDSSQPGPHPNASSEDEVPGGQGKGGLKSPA
From the text: as §1, §2

RARα [3] = molecular target: T4, RARα (Homo sapiens, UniProt P10276); test: ligand binding assay, RARα; details: Kd line of EC50/(EFFICACY)/Kd, K = thousand, read-out: RAR α Kd
T4 sequence (P10276 1-462): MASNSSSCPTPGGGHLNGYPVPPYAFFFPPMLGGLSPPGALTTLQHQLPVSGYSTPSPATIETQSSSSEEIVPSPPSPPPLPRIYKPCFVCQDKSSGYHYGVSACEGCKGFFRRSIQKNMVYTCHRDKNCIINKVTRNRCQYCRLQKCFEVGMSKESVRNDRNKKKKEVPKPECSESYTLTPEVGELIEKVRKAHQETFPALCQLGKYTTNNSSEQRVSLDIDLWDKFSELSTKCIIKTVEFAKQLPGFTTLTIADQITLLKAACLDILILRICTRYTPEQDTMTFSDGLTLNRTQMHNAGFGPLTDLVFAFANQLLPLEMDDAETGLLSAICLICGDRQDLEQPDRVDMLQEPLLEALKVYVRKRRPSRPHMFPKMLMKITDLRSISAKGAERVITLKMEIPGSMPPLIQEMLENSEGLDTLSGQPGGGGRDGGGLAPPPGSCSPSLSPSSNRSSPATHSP
From the text: as §1, §2

RARγ [4] = molecular target: T5, RARγ (Homo sapiens, UniProt P13631); test: ligand binding assay, RARγ; details: Kd line of EC50/(EFFICACY)/Kd, K = thousand, read-out: RAR γ Kd
T5 sequence (P13631 1-454): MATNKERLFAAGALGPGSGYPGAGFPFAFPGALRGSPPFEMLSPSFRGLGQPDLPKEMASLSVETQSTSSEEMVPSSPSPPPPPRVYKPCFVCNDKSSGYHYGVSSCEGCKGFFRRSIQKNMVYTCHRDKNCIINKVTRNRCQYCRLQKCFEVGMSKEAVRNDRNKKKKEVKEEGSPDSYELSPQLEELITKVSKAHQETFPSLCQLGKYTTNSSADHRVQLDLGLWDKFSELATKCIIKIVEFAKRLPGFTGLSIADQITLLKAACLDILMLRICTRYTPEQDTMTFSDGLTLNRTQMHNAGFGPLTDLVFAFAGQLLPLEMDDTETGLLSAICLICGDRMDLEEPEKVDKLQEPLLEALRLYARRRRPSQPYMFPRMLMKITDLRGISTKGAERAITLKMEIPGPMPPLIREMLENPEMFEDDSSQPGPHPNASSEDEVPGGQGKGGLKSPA
From the text: as §1, §2

IC50 (P450RAI-1): 520 nM
EC50 (RARα [1]): > 10000 nM
EC50 (RARγ [2]): 180 nM
Kd (RARα [3]): 90 nM
Kd (RARγ [4]): 4390 nM
SMILES: CC1(C)CC(C)(C)c2cc(C#Cc3ccc(C(=O)O)cc3)ccc2O1 [Compound 201]
